These results are taken from patent publication US20250002470A1, “NITROGEN-CONTAINING COMPOUND, PREPARATION METHOD THEREFOR AND APPLICATION THEREOF” (ZHEJIANG AIXPLORER BIOTECH CO., LTD., priority 2021, published 2025).

The subject of experiment [1] is IL-1β. The experiment is described as follows: IL-1β cytokine in LPS-induced sepsis mouse model. It counts as in vivo, C57BL/6J mice. Particulars: for IL-1β: given 30 minutes before LPS (10 mg/kg i.p.), serum 2 hours after LPS. As for the experimental part: (§1) The purpose of this study was to investigate and evaluate the inhibitory effect of the test compound on […] and IL-18 cytokine production in a mouse model of lipopolysaccharide (LPS)-induced sepsis.
(§2) 6-8 weeks female C57BL/6J mice, randomized, 5 animals in the Naïve group, and the rest of the groups (vehicle group, 15 mg/kg group with embodiment 33 compound, 50 mg/kg group with embodiment 33 compound and 150 mg/kg group with embodiment 33 compound, wherein 15 mg/kg, 50 mg/kg and 150 mg/kg is the dosage of embodiment 33, mg/kg is referred to as mpk) 10 animals per group. Among them, the Naïve group was not stimulated with LPS, and the 10 mice in each group were intraperitoneally injected with LPS (10 mg/kg) to induce sepsis model in the mouse. The vehicle (corresponding to the vehicle group) and the test compound (corresponding to the 15mpk group of Example 33, the 50mpk group of Example 33 and the 150mpk group of Example 33 respectively) were administered 30 minutes before LPS stimulation. 2 hours after LPS stimulation, the mice were euthanized, and whole blood was collected from the heart and placed in EP tubes, left to stand at room temperature for 1 hour, and centrifuged at 8000 rpm for 10 minutes to collect serum for measurement of cytokines IL-10 and IL-18.
For the standard pellet in the IL-10 cytokine CBA kit, put the IL-10 standard pellet into a 15 mL centrifuge tube, add 4 mL of Assay Diluent, and let it stand at room temperature for more than 15 minutes; • After the supernatant sample is melted and mixed evenly, the supernatant is diluted 2 times; • Preparation of standard reagent: Add the diluent Assay Diluent in advance to the 96-well V-shaped bottom plate, 100 μL/well. Add 200 μL of the standard that has been left to stand for 15 minutes into the well plate, and add 100 μL each time to the diluent in sequence. Gradually dilute the standard to 11 gradients (double dilution each time). The 12th hole is used as Blank, 200 μL/well; • Preparation of Capture beads reagent: Take the capture beads in the IL-10 cytokine CBA kit and vortex for 30 seconds. Prepare the Beads as follows: 60 μL IL-10 beads+2440 μL capture beads diluent (60 wells); mix evenly, 50 μL/well, add it to a […] V-bottom plate; shake at 200 g for 5 minutes, and incubate at room temperature for 1 hour; • Preparation of Detection reagent: Take the PE Detection from the IL-10 cytokine CBA kit and vortex for 30 seconds. Prepare the PE as follows: 60 μL IL-10 Detection+2440 μL PE detection diluent; mix evenly. […]

In experiment [2] the test system is IL-18. Kind of experiment: IL-18 cytokine in LPS-induced sepsis mouse model. The format is in vivo, C57BL/6J mice. As to conditions: for IL-18: given 30 minutes before LPS (10 mg/kg i.p.), serum 2 hours after LPS. The protocol: as §1, §2
After the kit is taken out of the refrigerator, it should be equilibrated at room temperature (25-28° C.) for 20 minutes; the remaining reagents should be stored at 4° C. immediately after each test.
Prepare an appropriate amount of standard diluent: dilute the standard diluent (5×) to 1× with double-distilled or deionized water. For example, add 10 mL of standard diluent (5×) to 40 mL of water and mix well to obtain a 1× standard. Diluent.
Prepare an appropriate amount of washing liquid: Dilute the washing liquid (20×) with double-distilled or deionized water to 1×. For example, add 10 mL of washing liquid (20×) to 190 mL of water and mix well to obtain a 1×washing liquid.
Standard preparation: Add the standard diluent to one bottle of standard according to the volume (0.5 mL) marked on the standard label, incubate at room temperature for 15 minutes, then mix gently and pipet several times with a pipette to completely dissolve the standard. The final concentration of the standard reaches 1500 pg/mL. Take […] 1.5 mL centrifuge tubes, add 250 μL of standard diluent to each tube in advance, and perform dilutions of the standard to obtain a total of 1500, 750, 375, 187.5, 93.75, 46.875, and 23.4375 pg/mL. standard concentration, and finally add the diluted standard to the pre-coated plate wells in sequence, and add the standard diluent directly as a concentration of 0 pg/mL, for a total of 8 standard concentrations. […]

Consider `Cc1nc(N[C@@H]2CCCC[C@H]2O)nnc1-c1ccc(C(F)(F)F)cc1O` [Embodiment 33], for which the IL-1β is 310.1 ± 32.88 in experiment [1] (15 mpk), 213.4 ± 25.66 in experiment [1] (50 mpk) and 19.36 ± 5.166 in experiment [1] (150 mpk). The “inhibitory effect on IL-1β compared with the Vehicle group” value in experiment [1] (three dose groups (15, 50, 150 mg/kg)) is listed as “significant inhibitory effect”. The IL-18 in experiment [2] (15 mpk) is on record as 560.5 ± 46.39; in experiment [2] (50 mpk), 320.1 ± 29.69; in experiment [2] (150 mpk) it was 216.2 ± 9.238. Moreover, the “inhibitory effect on IL-18 compared with the Vehicle group” value in experiment [2] (two doses of 50 mg/kg and 150 mg/kg) is “significant inhibitory effect”.
